The values that follow come from article PMC10363480 (Plant Communications, 2023).

For the first experiment, the system named is mitochondria or chloroplast of Chlamydomonas reinhardtii. Description: Subcellular localization of Venus reporter by epifluorescence microscopy (manual targeting assignment). Type of experiment: cell-based. As to conditions: manual targeting assignment of the Venus reporter construct in Chlamydomonas: Neither / Mitochondria / Chloroplast / Dual, (partial) = partial targeting. The source says: In a bid to keep peptidase recognition sites intact, C-terminal elements were designed to start 10 residues upstream of the cleavage site, even though this slightly truncates TP helices. Peptides carrying the 15-amino-acid cTP N-terminus (cTP-N) will be denoted ^cP. Similarly, peptides with C-terminal elements from RCA1-cTP (cTP-C) or CAG2-mTP (mTP-C) will be denoted P^c or P^m, respectively. Peptide variants are used to drive the subcellular localization of a Venus fluorescent reporter protein, which was assessed using fluorescence microscopy; in Figure 2, an executive overview of observed Venus localization is presented for all constructs. […] Here, we use automated image segmentation to validate our subcellular localization assessment (Supplemental Figure 2, Supplemental text). […] The reader will be asked to return to Figure 2 throughout, with Figures 3 and 4 providing selected micrographs as examples highlighting particular points of interest.
Chlamydomonas TP sequences were amplified from genomic DNA extracted from strain T222+ (CC-5101). Templates for codon-optimized HA-RAMP, RP, and R→K modified TP sequences were obtained by gene synthesis (Eurofins Genomics). Correct assembly was verified by sequencing (Eurofins Genomics). Linear transformation cassettes were generated through restriction digestion with EcoRV (New England Biolabs).
Constructs were transformed into wild-type strain T222+ (CC-5101) using a protocol described previously ([Onishi and Pringle, 2016]), except using 4 μl of DNA at 2 μg/μl.
Strains with suspected mitochondrial targeting were treated with 0.1 μM MitoTracker Red CMXRos (Thermo Fisher Scientific) in growth medium for 30 min in the dark and washed with TAP prior to taking images.
Legend for Fig. S3 – S20. Three independent transformant lines (Strains 1-3) are shown for each combination of modifications (A-L), represented by a cartoon and a shorthand description (cf. Fig.
2). Where a construct was interpreted as generating reporter localization in mitochondria or […]
Epifluorescence microscopy images of typical cells for each strain are shown. MitoTracker fluorescence, false-coloured in cyan, indicates the position of mitochondria (although parts of the cell exterior are sometimes also stained). False-coloured yellow fluorescence from the Venus channel reports on the subcellular localization of the fluorescent reporter. Chlorophyll autofluorescence, shown in magenta, indicates the location of the chloroplast. Scale bars are 5µm. Brightness (Br.) was adjusted for clarity: fluorescence intensity values were restricted to the range shown for each channel by matching coloured rectangles. Intensity scales to 0 at the bottom of the panel, and to 65535 at the top.
On the right-hand side, quantitative information associated with each construct is shown. Data was normalized such that averages range from 0 to 1 across all constructs (cf. Fig S2). Individual cell measurements may exceed this range; for clarity, the range shown here is limited to -0.5 to 1.5, with outliers that have more extreme values shown as lying beyond a dashed line. Strain 1 is plotted as circles, strain 2 as squares, and strain 3 as diamonds. Venus: Fluorescence plate reader data of transformants screened for this construct (Venus fluorescence, accounting for cell density using linear regression of OD750 and chlorophyll fluorescence trained on ‘no venus’ control transformants). Transformants that were not selected after screening are shown as small grey circles. A colour code ranging from white (low Venus fluorescence) to black (high Venus fluorescence) is used for strains 1-3 and the average thereof. Automated image quantification data: pyr/chl: Venus channel signal in the pyrenoid relative to in the chlorophyll region; mt/cell: Venus channel signal in mitochondria relative to the whole cell. Each point corresponds to a single cell.
The colour code code is the same as that below distributions in Fig. S2, i.e. blue highlights the […]
As for “MQVTMKSSAVSGQRVDEVNNDNCRIRFRGDISSESDRMNINY [c.RP2.R]”, the Localisation result was “Neither”. Same read-out and setting: next, “MQVTMKSSAVSGQRVDEVNNDNCRIRFRGDISSESDRMNINYLTQTAESFRGVSSQFFDAPNGPSVKQVLIEDEW [c.RP2.R.m]”: “Neither”. Turning to “MQVTMKSSAVSGQRVDEVNNDNCRIRFRGDISSESDRMNINYSVRRAQLQVVASSRKQMGRWRSIDAGVDASDDQ [c.RP2.R.c]”, the Localisation entry is “Neither”.

Take MQVTMKSSAVSGQRVGGARVATR [c.CH.R]: the Localisation result is given as “Neither”.

In the case of “MQVTMKSSAVSGQRVGGARVATRLTQTAESFRGVSSQFFDAPNGPSVKQVLIEDEW [c.CH.R.m]”, the Localisation entry is reported as “Neither”. For “MQVTMKSSAVSGQRVGGARVATRSVRRAQLQVVASSRKQMGRWRSIDAGVDASDDQ [c.CH.R.c]”, the Localisation entry is “Chloroplast”.

For “MQVTMKSSAVSGQRVGRIPVRAIRRAGAAIGRGLRAINIASTAHDVYSFFRPRHRRR [c.SIM.R]”, the Localisation entry is listed as “Chloroplast”. The same measure, in the same setting: next, “MQVTMKSSAVSGQRVGRIPVRAIRRAGAAIGRGLRAINIASTAHDVYSFFRPRHRRRLTQTAESFRGVSSQFFDAPNGPSVKQVLIEDEW [c.SIM.R.m]”: “Chloroplast”. On the same count and under the same terms, next, “MQVTMKSSAVSGQRVGRIPVRAIRRAGAAIGRGLRAINIASTAHDVYSFFRPRHRRRSVRRAQLQVVASSRKQMGRWRSIDAGVDASDDQ [c.SIM.R.c]”: “Chloroplast”; “MQVTMKSSAVSGQRVLTQTAESFRGVSSQFFDAPNGPSVKQVLIEDEW [c.-.m]”: “Neither”. Same read-out and setting: next, “MQVTMKSSAVSGQRVMGLLLDTLRGAARDIAGIALERLRCRITGCRP [c.R2G.R]”: “Mitochondria”; “MQVTMKSSAVSGQRVMGLLLDTLRGAARDIAGIALERLRCRITGCRPLTQTAESFRGVSSQFFDAPNGPSVKQVLIEDEW [c.R2G.R.m]”: “Mitochondria”; “MQVTMKSSAVSGQRVMGLLLDTLRGAARDIAGIALERLRCRITGCRPSVRRAQLQVVASSRKQMGRWRSIDAGVDASDDQ [c.R2G.R.c]”: “Dual”.

The same experiment, now with this note: peptide-Venus reporter construct expressed in Chlamydomonas reinhardtii; manual targeting assignment (Neither / Mitochondria / Chloroplast / Dual; partial = partial targeting).
Take “MQVTMKSSAVSGQRVFLPLLAGLAANFLPKIFCKITRKCSVRRAQLQVVASSRKQMGRWRSIDAGVDASDDQ [c.B1E.K.c]”: the Localisation result was “Chloroplast”.

As for “MQVTMKSSAVSGQRVGIGKFLHSAKKFGKAFVGEIMNS [c.MII.K]”, the Localisation entry is recorded as “Mitochondria”. On to “MQVTMKSSAVSGQRVGIGKFLHSAKKFGKAFVGEIMNSLTQTAESFRGVSSQFFDAPNGPSVKQVLIEDEW [c.MII.K.m]”, for which the Localisation result is given as “Mitochondria (partial)”. Still for that read-out and setting: next, “MQVTMKSSAVSGQRVGIGKFLHSAKKFGKAFVGEIMNSSVRRAQLQVVASSRKQMGRWRSIDAGVDASDDQ [c.MII.K.c]”: “Chloroplast”. “MQVTMKSSAVSGQRVGIGRFLHSARRFGRAFVGEIMNS [c.MII.R]”: the Localisation result was “Mitochondria”. Same read-out and setting: next, “MQVTMKSSAVSGQRVGIGRFLHSARRFGRAFVGEIMNSLTQTAESFRGVSSQFFDAPNGPSVKQVLIEDEW [c.MII.R.m]”: “Dual”; “MQVTMKSSAVSGQRVMGLFSKFNKKKIKSGLIKIIKTAGKEAGLEALRTGIDVIGCKIKGECSVRRAQLQVVASSRKQMGRWRSIDAGVDASDDQ [c.E1S.K.c]”: “Chloroplast”; “MQVTMKSSAVSGQRVMGLFSRFNRRRIRSGLIRIIRTAGREAGLEALRTGIDVIGCRIRGECSVRRAQLQVVASSRKQMGRWRSIDAGVDASDDQ [c.E1S.R.c]”: “Chloroplast”.

Staying with this experiment, now noted: targeting of the Venus reporter fused to the peptide, expressed in Chlamydomonas reinhardtii; manual assignment from epifluorescence microscopy; full or partial.
For the sequence “MQVTMKSSAVSGQRVDEVNNDNCRIKFKGDISSESDKMNINYLTQTAESFRGVSSQFFDAPNGPSVKQVLIEDEW [c.RP2.K.m]”, the Localisation result is listed as “Neither”. The same measure, in the same setting: next, “MQVTMKSSAVSGQRVDEVNNDNCRIKFKGDISSESDKMNINYSVRRAQLQVVASSRKQMGRWRSIDAGVDASDDQ [c.RP2.K.c]”: “Neither”; “MQVTMKSSAVSGQRVFLPLLAGLAANFLPKIFCKITRKC [c.B1E.K]”: “Mitochondria”. Turning to “MQVTMKSSAVSGQRVFLPLLAGLAANFLPKIFCKITRKCLTQTAESFRGVSSQFFDAPNGPSVKQVLIEDEW [c.B1E.K.m]”, the Localisation entry is “Dual”.

On to “MQVTMKSSAVSGQRVFLPLLAGLAANFLPRIFCRITRRC [c.B1E.R]”, for which the Localisation entry is given as “Mitochondria”.

On to “MQVTMKSSAVSGQRVFLPLLAGLAANFLPRIFCRITRRCLTQTAESFRGVSSQFFDAPNGPSVKQVLIEDEW [c.B1E.R.m]”, for which the Localisation entry is reported as “Dual”.

As to “MQVTMKSSAVSGQRVFLPLLAGLAANFLPRIFCRITRRCSVRRAQLQVVASSRKQMGRWRSIDAGVDASDDQ [c.B1E.R.c]”, the Localisation entry is “Chloroplast”. On to “MQVTMKSSAVSGQRVGIGRFLHSARRFGRAFVGEIMNSSVRRAQLQVVASSRKQMGRWRSIDAGVDASDDQ [c.MII.R.c]”, for which the Localisation result is given as “Chloroplast”.

On to “MQVTMKSSAVSGQRVMALWKTMLKKLGTMALHAGKAAFGAAADTISQ [c.DDM.K]”, for which the Localisation result is listed as “Neither”. As to “MQVTMKSSAVSGQRVMALWKTMLKKLGTMALHAGKAAFGAAADTISQLTQTAESFRGVSSQFFDAPNGPSVKQVLIEDEW [c.DDM.K.m]”, the Localisation entry is reported as “Neither”. Still for that read-out and setting: next, “MQVTMKSSAVSGQRVMALWKTMLKKLGTMALHAGKAAFGAAADTISQSVRRAQLQVVASSRKQMGRWRSIDAGVDASDDQ [c.DDM.K.c]”: “Chloroplast (partial)”; “MQVTMKSSAVSGQRVMGKIPVKAIKKAGAAIGKGLRAINIASTAHDVYSFFKPKHKKK [c.SIM.K]”: “Chloroplast (partial)”. Regarding “MQVTMKSSAVSGQRVMGKIPVKAIKKAGAAIGKGLRAINIASTAHDVYSFFKPKHKKKLTQTAESFRGVSSQFFDAPNGPSVKQVLIEDEW [c.SIM.K.m]”, the Localisation entry is listed as “Chloroplast”.

As to “MQVTMKSSAVSGQRVMGKIPVKAIKKAGAAIGKGLRAINIASTAHDVYSFFKPKHKKKSVRRAQLQVVASSRKQMGRWRSIDAGVDASDDQ [c.SIM.K.c]”, the Localisation result is on record as “Chloroplast”.

Take “MQVTMKSSAVSGQRVMGLFSKFNKKKIKSGLIKIIKTAGKEAGLEALRTGIDVIGCKIKGEC [c.E1S.K]”: the Localisation entry is “Neither”. Turning to “MQVTMKSSAVSGQRVMGLFSKFNKKKIKSGLIKIIKTAGKEAGLEALRTGIDVIGCKIKGECLTQTAESFRGVSSQFFDAPNGPSVKQVLIEDEW [c.E1S.K.m]”, the Localisation entry is reported as “Chloroplast”. Consider “MQVTMKSSAVSGQRVMGLFSRFNRRRIRSGLIRIIRTAGREAGLEALRTGIDVIGCRIRGEC [c.E1S.R]”, for which the Localisation entry is listed as “Chloroplast”. Still for that read-out and setting: next, “MQVTMKSSAVSGQRVMGLFSRFNRRRIRSGLIRIIRTAGREAGLEALRTGIDVIGCRIRGECLTQTAESFRGVSSQFFDAPNGPSVKQVLIEDEW [c.E1S.R.m]”: “Chloroplast”; “MQVTMKSSAVSGQRVMGLLLDTLKGAAKDIAGIALEKLKCKITGCKP [c.R2G.K]”: “Mitochondria (partial)”.

Regarding “MQVTMKSSAVSGQRVMGLLLDTLKGAAKDIAGIALEKLKCKITGCKPLTQTAESFRGVSSQFFDAPNGPSVKQVLIEDEW [c.R2G.K.m]”, the Localisation result was “Mitochondria”. For the sequence “MQVTMKSSAVSGQRVMGLLLDTLKGAAKDIAGIALEKLKCKITGCKPSVRRAQLQVVASSRKQMGRWRSIDAGVDASDDQ [c.R2G.K.c]”, the Localisation result is given as “Mitochondria (partial)”.

On to “MQVTMKSSAVSGQRVMGWIRDFGKRIERVGQHTRDATIQTIAVAQQAANVAATLKG [c.S1D.K]”, for which the Localisation entry is listed as “Mitochondria”.
